Measurements taken from patent publication US20220402883A1, “COMPOUNDS AND METHODS FOR MODULATING RNA FUNCTION” (Arrakis Therapeutics, Inc., priority 2016, published 2022).
Counter-ions that a name gives are not always drawn.

Tests used:
[1] = tested on: 17CAG and 41CAG RNA (httmRNA); assay: Ligand observed NMR binding assay for CAG repeat RNA; details: 3 μM RNA, 200 μM compound, 288 K
Method: Following the above procedure, various tool and test compounds were assayed for binding. In a first series of experiments, compounds were tested for binding to 17CAG or 41CAG (sample was 3 μM in RNA). […] However, several of the compounds did show significant changes in their signals in the presence of the two RNA target species.
Purpose: Test direct binding of compounds for httmRNA (construct with 41 CAG repeats 474 nt) and others as described below. Ligand observed NMR assay to test direct binding of fragments to RNA target (e.g. construct with 41 CAG repeats 474 nt). Single compound hits were identified for further characterization by orthogonal assay (e.g. surface plasmon resonance, SPR). Ligand observed assay was used for primary screen and deconvolution into single fragment hits. Established experiments were eventually used for group epitope mapping.
This assay tests for direct binding of compounds to httmRNA and may be adapted for other repeat RNAs. Compounds are tested in pools (i.e. pool size of 12 fragments in each sample in the primary screen and smaller pool sizes during deconvolution and eventually single compound measurements).
Sample buffer: 10 mM Tris-HCl, pH 8.0, 0.78 g [MW: 157.56 g/mol]; 75 mM KCl, 2.79 g [MW: 74.55 g/mol]; 3 mM MgCl2, 0.14 g [MW: 95.21 g/mol]; fill up to 500 mL with Millipore H2O.
Dried RNA pellet is solubilized in sample buffer 10 mM Tris-HCl pH 8.0, 75 mM KCl, 3 mM MgCl2. RNA aliquot at 13.9 μM (stock concentration) is denatured at 95° C. for 3 min and snap-cooled on ice for 3 min, and refolded at 37° C. for 30 min.
Final concentrations in the sample: 200 μM each fragment and 3 μM RNA target molecule.
Sample is placed into magnet and temperature adjusted to 288 K. Spectrometer frequency at 600 MHz is matched and tuned. Magnetic field is shimmed to homogenize magnetic field around the sample.
Sequence of experiments includes a Proton 1D experiment with a Watergate sequence for water suppression, a WaterLOGSY (WLOGSY) and a 1D Saturation transfer difference (STD) experiment to test for direct binding of the compounds to the RNA.
Details for 1D Watergate experiment: For each 1D WATERGATE spectrum a total of 8192 complex points in f1 (^1H) with 128 scans were acquired (experiment time 4 min.). The spectral width was set to 16.66 ppm.
Details WLOGSY experiment: For the WLOGSY-spectrum, a total of 1024 complex points in f1 (^1H) with 256 scans were acquired (experiment time 25 min.). The carrier frequency for ^1H was set at the water resonance (˜4.7 ppm). The spectral width was set to 16.66 ppm in the direct dimension (^1H).
Details STD experiment: For the STD-spectrum, a total of 1024 complex points in f1 (^1H) with 1024 scans were acquired (experiment time 65 min.). The carrier frequency for ^1H was set at the water resonance (˜4.7 ppm). The spectral width was set to 16.66 ppm in the direct dimension (^1H). For the on-resonance experiments saturation is set to 2.0 sec at a saturation frequency of −2500 Hz. For the off-resonance experiment saturation frequency is set at 10200 Hz.
Python scripts were used to process all recorded spectra in the assay setup, screening and deconvolution process. Spectra were analyzed for direct binding signals of the compounds. Identified single compound hits were reported.

41CAG RNA (476 nt) = assay: NMR competition experiments (WaterLOGSY); type: binding; details: 100 μM compound, 2.5 μM RNA
Method: Competition experiments were also performed. Test Sample: 2.5 μM 41CAG RNA (476 nt) was combined with the following: 100 μM HP-AC008002-E01 (A); +/−200-400 μM HP-AC008001-E02 (B); and +/−200-400 μM HP-AT005003-C03 (C). ^1H 1D Watergate & WaterLOGSY spectra recorded of HP-AC008002-E01 are used as a reference.
In a further experiment, as Test Sample 2.5 μM 41CAG RNA (476 nt) was used in the presence of: 100 μM HP-AC008001-E02 (B) or 100 μM HP-AT005003-C03 (C); +/−200-400 μM HP-AC008002-E01 (A). ^1H 1D Watergate and WaterLOGSY spectra recorded single cmpds were used as a reference.
In a further experiment, as Test Sample: 2.5 μM 41CAG RNA (476 nt) was used in the presence of: 100 μM HP-AC008001-E02 (B)+/−200-400 μM HP-AT005003-C03 (C). ^1H 1D Watergate & WaterLOGSY spectra recorded of single cmpd HP-AC008001-E02 were used as a reference.

[2] = tested on: RNA3WJ_0.0.0_5IB_3FAM (3WJ_0.0.0_5IB_3FAM RNA construct); assay: Thermal shift binding assay; details: for Melt. Temp. with cmpd / Shift melt. Temp.: RNA sequence 3WJ_0.0.0_5IB_FAM; for Melt. Temp. with cmpd: melting temperature in presence of compound; for Shift melt. Temp.: with cmpd minus without cmpd
Description: (§1) Purpose: Test binding of compounds for RNA three way junction (for example, a construct of 38 nt). Thermal shift assay based on established fluorescence quenching assay utilizing FAM as fluorescence tag and Iowa Black as quencher. Tags were attached at the 3′ and 5′ end, respectively. Stable formation of 3WJ upon compound binding would lead to quenching of the FAM fluorescence due to close proximity of the Iowa Black tag. Thermal unfolding leads to increase of fluorescence emission. Assay readout: FAM (465-510 nm) Thermal Shift.
(§2) Assay sample buffer used: 10 mM CacoK pH 7.2, 30 mM NaCl. Buffer preparation in Dnase/Rnase Free distilled water (Gibco Life Technologies).
(§3) Dilute the RNA 1:10 (final 10 μM) in Assay Buffer.
(§4) Heat up the diluted RNA up to 90° C. for 5 min (sealed Eppendorf Tube).
(§5) Cool down the RNA probe slowly to RT.
(§6) Dilute the compounds to 800 μM in DMSO (Assay: 8 μM). […]
(§7) Pipet 20 μL Sample Solution into Roche, Light Cycler480 Multiwell Plate96, white, REF 04729692001.
(§8) Measure the 96 plate with the LightCycler480 (Channel: 480/510 nm; Temperature: 41-91° C.).
(§9) Analyse measurement-data with the MeltingCurveGenotyping Mode.
(§10) Settings: Acquisition mode: continuous; Ramp rate: 0.1° C./sec; Acquisition: 6° C.
(§11) Curves are fitted with raw and normalized data.
(§12) Melting curves analysis show melting temperature (Tm) of ˜51° C. Range of RNA concentrations was tested and assay window was determined (conc. range of 0.5-1 μM yields best results). The choice of buffer also affected the Tm. RNA constructs were tested under different buffer conditions (especially in presence of salt) in the thermal shift assay. […] CacoK with 30 mM salt at 1 μM RNA conc. was used to assess compound effects on 3WJ stability. […] These conditions were used for screening test compounds.

[3] = tested on: 3WJ_0.0.0_5IB_3FAM RNA construct; assay: Fluorescence quenching binding assay (FAM / Iowa Black); details: concentration dependent; effect at conc. >5 μM
Method: This assay will be used to test binding of compounds for RNA three way junction (such as a 38 nt construct). This is a fluorescence quenching assay utilizing FAM as fluorescence tag and Iowa Black as quencher. Tags are attached at the 3′ and 5′ end, respectively. Stable formation of MW upon compound binding would lead to quenching of the FAM fluorescence due to close proximity of the Iowa Black tag. Assay readout: FAM (485-520 nm) Fluorescence Intensity.
as §2, §3, §4, §5
(§13) Dilute the compounds to 800 μM in DMSO (Assay: 8 μM).
Final concentrations in the sample: 1-10 μM RNA, 8 μM compound, 1% DMSO
Pipet 25 μL Sample Solution into Greiner cat #784076, black, 384
Measure the 96 plate with the LightCycler480 (Channel: 485/520 nm).
Calibration of the expected fluorescence signal at various RNA concentrations in either CacoK or NaPO4 buffers was performed first. Experiments in buffers containing salt show distinct fluorescence quenching behavior. […]
First, two compounds (i.e. Ark000007 & Ark000008) were tested in the fluorescence quenching assay to assess concentration dependent influence on the fluorescence signal.

RNA3WJ_3.0.0_5IB_3FAM = assay: Thermal shift binding assay; details: RNA:ligand ratios 1:1, 1:3
Description: as §1, §2, §3, §4, §5, §6, §7, §8, §9, §10, §11, §12

[4] = tested on: RNA3WJ_1.0.0_5IB_3FAM (cis 3WJ with one unpaired nucleotide); assay: Thermal shift binding assay; details: RNA:ligand ratios 1:1, 1:3
Description: as §1, §2, §3, §4, §5, §13
Final concentrations in the sample: 1 μM RNA, 8 μM compound, 1% DMSO
as §7, §8, §9, §10, §11, §12
Compounds Ark0000013 and Ark0000014 were also tested in the thermal shift assay against three RNA 3WJ constructs, A) RNA3WJ_1.0.0_5IB_3FAM (cis 3WJ with one unpaired nucleotide); B) Split3WJ.1_up_5IB+Split3WJ.1_down_3FAM (trans 3WJ as 1:1 mix); and C) Split3WJ.2_up_5IB+Split3WJ.2_down_3FAM (trans 3WJ as 1:1 mix).

[5] = 1 μM RNA, 8 μM compound, 10 mM CacoK pH 7.2, 30 mM NaCl
[6] = competitor HP-AC008002-E01 200-400 μM (up to 1:4)

SMILES | STD signal [1] | Melt. Temp. with cmpd [2] [°C] | Shift melt. Temp. [2] | further results
OCc1cccc(-c2cccnc2)c1 [HP-AC008002-E01] | distinct | – | – | WaterLOGSY signals in the presence of competitor (41CAG RNA (476 nt); competitor HP-AC008001-E02 or HP-AT005003-C03 200-400 μM (up to 1:4)): still observed
O=C(c1ccc(Cl)cc1)N1CCN(c2ccc([N+](=O)[O-])c3ncccc23)CC1 [CPNQ, reference compound] | distinct | – | – | –
[N-]=[N+]=NC[C@H]1O[C@H](O[C@@H]2[C@@H](O)[C@H](O[C@H]3O[C@H](CN)[C@@H](O)[C@H](O)[C@H]3O)[C@@H](N)C[C@H]2N)[C@H](O)[C@@H](N)[C@@H]1O [Ark000007, 6″-Azido-Kanamycin a Hydrochloride Salt] | – | 65.6 | +4.4 °C | Melting temp + cmpd [2, 5]: 65.6 °C; Temp. Shift [2, 5]: ~5 °C; fluorescence quenching effect (FAM fluorescence signal) [3]: increase of quenching effect
C#CCCCC(=O)NC[C@H]1O[C@H](O[C@H]2[C@H](O)[C@@H](O[C@H]3O[C@H](CO)[C@@H](O)[C@H](N)[C@H]3O)[C@H](N)C[C@@H]2N)[C@H](O)[C@@H](O)[C@@H]1O [Ark000008] | – | 61.8 | +0.6 °C | effect on melting temperature (in words) ([2]; 1 μM RNA, 8 μM compound): only a very small effect; fluorescence quenching effect (FAM fluorescence signal) [3]: Only Ark000007 showed an increase of quenching effect
NCc1ccc2ccccc2n1 [HP-AC008004-C07] | weak | – | – | –
CC(O)CNCc1ccc(-c2ccccc2)o1 (stereo not shown) [HP-AT005003-C03] | distinct | – | – | WaterLOGSY signals in the presence of competitor (41CAG RNA (476 nt); [6]): still observed
CN(CCCN)CCCNC(=O)c1ccccc1 [Ark000039] | – | 60.3 | −1.2 °C | effect in the melting curves (raw and normalized data) ([2]; RNA:ligand ratios 1:1, 1:3): no significant effect; effect in the melting curves (raw and normalized data) (RNA3WJ_3.0.0_5IB_3FAM): lack of effect; effect in the melting curves (raw and normalized data) [4]: lack of effect
CN(CCOCCOCCNC(=O)CCC12c3cc(NC(=O)CCCCCCCN)ccc3C(c3ccc(NC(=O)CCCCCCCN)cc31)c1ccc(NC(=O)CCCCCCCN)cc12)C(=O)[C@@H]1C[C@H](N=[N+]=[N-])CN1C(=O)COc1ccc2c(=O)oc(=O)n(C)c2c1 [ARK000025, N,N′,N″-(9-(1-((2S,4S)-4-azido-1-(2-((1-methyl-2,4-dioxo-1,4-dihydro-2H-benzo[d][1,3]oxazin-7-yl)oxy)acetyl)pyrrolidin-2-yl)-2,11-dimethyl-1,12-dioxo-5,8-dioxa-2,11-diazatetradecan-14-yl)-9,10-dihydro-9,10-[1,2]benzenoanthracene-2,7,15-triyl)tris(8-aminooctanamide)] | – | 50.4 | −10.2 °C | –
Cc1nn(-c2ccccc2)nc1CN [HP-AC008001-E02] | distinct | – | – | WaterLOGSY signals in the presence of competitor (41CAG RNA (476 nt); [6]): still observed; WaterLOGSY signals in the presence of competitor (41CAG RNA (476 nt); competitor HP-AT005003-C03 200-400 μM (up to 1:4)): still observed
